Earlier results in patent US7625587B2, “Hepato phyto-nutraceutical synergistic composition” (priority 2006, dated 2009).

Experiments:
[1] = test system: bacterial resistance mechanism (multidrug pump); settings: in the presence of 5′-MHC
hepatic mitochondria = settings: free oxygen radical induced damage
[2] = test system: carbon tetrachloride hepatotoxicity; settings: mouse, in vivo
mice hepatocytes [3] = test system: mice hepatocytes
mice hepatocytes [4] = test system: mice hepatocytes; remark: listed apart in the source
beta-reductase = settings: in vitro
[5] = test system: 11_beta-hydroxysteroid dehydrogenase; settings: in vitro
[6] = test system: hepatic toxicity induced by paracetamol, prednisolone and bromobenzene; settings: mice; pre-treatment during ten days

COc1cc([C@H]2Oc3cc(-c4cc(=O)c5c(O)cc(O)cc5o4)cc(OC)c3O[C@@H]2CO)ccc1O (racemic) [5′-methoxyhydnocarpin]
accumulation of berberine in the cells [1]: strong increase of accumulation of berberine

COc1cc(/C=C/C(=O)O)ccc1O [Ferulic acid, ferulic acid]
protection of hepatic mitochondria (hepatic mitochondria): protected the hepatic mitochondria

CC1(C)[C@@H](O[C@H]2O[C@H](C(=O)O)[C@@H](O)[C@H](O)[C@H]2O[C@@H]2O[C@H](C(=O)O)[C@@H](O)[C@H](O)[C@H]2O)CC[C@]2(C)[C@H]3C(=O)C=C4[C@@H]5C[C@@](C)(C(=O)O)CC[C@]5(C)CC[C@@]4(C)[C@]3(C)CC[C@@H]12 [Glycyrrhizin]
hepatic injuries induced by carbon tetrachloride [2]: prevented hepatic injuries | liberation of histamine (mice hepatocytes [3]): inhibited the liberation of histamine

CC1(C)[C@@H](O[C@H]2O[C@H](C(=O)O)[C@@H](O)[C@H](O)[C@H]2O[C@@H]2O[C@H](C(=O)O)[C@@H](O)[C@H](O)[C@H]2O)CC[C@]2(C)[C@H]3C(=O)C=C4[C@@H]5C[C@@](C)(C(=O)O)CC[C@]5(C)CC[C@@]4(C)[C@]3(C)CC[C@@H]12 [glicirricinic acid]
toxic action of carbon tetrachloride and of galactosamine (mice hepatocytes [4]): reduces the toxic action

CC1(C)[C@@H](O)CC[C@]2(C)[C@H]3C(=O)C=C4[C@@H]5C[C@@](C)(C(=O)O)CC[C@]5(C)CC[C@@]4(C)[C@]3(C)CC[C@@H]12 [glycyrrhetic acid]
inhibition of beta-reductase (beta-reductase): inhibits | inhibition of 11_beta-hydroxysteroid dehydrogenase [5]: inhibits

COc1cc(/C=C/C(=O)[O-])ccc1O.[Na+] [sodium ferulate]
drug induced hepatic toxicity [6]: improved the hepatic toxicity
